Patent US11319315B2, “Cyclohexyl acid triazole azoles as LPA antagonists” (BRISTOL-MYERS SQUIBB COMPANY, priority 2017, dated 2022)

Molecular target: T1, human LPA1 (Homo sapiens, UniProt Q92633)
T1 construct: expressed in transfected cells; host or cells: Chinese hamster ovary (CHO) cells
Assay: LPA1 functional antagonist assay (LPA-induced calcium flux in CHO cells overexpressing human LPA1)
Format: cell-based
Details: inhibition of calcium flux induced by 10 nM LPA, CHO cells overexpressing human LPA1; read-out: hLPA1 IC50
Outline: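 Calcium flux was triggered by 10 nM LPA after 20 min room-temperature compound pre-incubation (final 0.08 nM to 5 μM, 0.5% DMSO) in human LPA1-overexpressing CHO cells carrying calcium dye. Buffer: HBSS with Ca/Mg, 20 mM HEPES, 0.1% fatty-acid-free BSA; IC50s from 4-parameter logistic fits.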

T1 sequence (Q92633 whole entry): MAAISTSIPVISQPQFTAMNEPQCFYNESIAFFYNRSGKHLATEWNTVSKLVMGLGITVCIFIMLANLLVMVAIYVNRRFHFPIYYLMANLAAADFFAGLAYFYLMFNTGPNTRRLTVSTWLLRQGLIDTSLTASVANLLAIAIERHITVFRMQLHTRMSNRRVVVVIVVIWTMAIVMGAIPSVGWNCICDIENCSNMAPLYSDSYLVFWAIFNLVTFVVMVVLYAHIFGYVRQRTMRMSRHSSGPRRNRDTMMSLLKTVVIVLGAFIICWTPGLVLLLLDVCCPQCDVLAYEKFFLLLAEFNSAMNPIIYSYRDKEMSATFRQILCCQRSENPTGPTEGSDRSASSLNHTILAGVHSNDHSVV

Question: CCCOCc1nnnn1Cc1c(-c2ccc(O[C@H]3CCC[C@H](C(=O)O)C3)c(C)n2)nnn1C [Example 305, (1S,3S)-3-{[2-methyl-6-(1-methyl-5-{[5-(propoxymethyl)-1H-1,2,3,4-tetrazol-1-yl]methyl}-1H-1,2,3-triazol-4-yl)pyridin-3-yl]oxy}cyclohexane-1-carboxylic acid] was tested. Which IC50 did it give?
Answer: 0.243 µM

Question: Which IC50 does the source give for CCc1nc(-c2nnn(C)c2Cn2nnnc2CC2CC2)ccc1O[C@H]1CCC[C@H](C(=O)O)C1 [Example 306, (1S,3S)-3-{[6-(5-{[5-(cyclopropyl-methyl)-1H-1,2,3,4-tetrazol-1-yl]methyl}-1-methyl-1H-1,2,3-triazol-4-yl)-2-ethylpyridin-3-yl]oxy}cyclohexane-1-carboxylic acid] here?
Answer: 0.205 µM

Question: With CCc1nc(-c2nnn(C)c2Cn2nnc(CC3CC3)n2)ccc1O[C@H]1CCC[C@H](C(=O)O)C1 [Example 307, (1S,3S)-3-{[6-(5-{[5-(cyclopropyl-methyl)-2H-1,2,3,4-tetrazol-2-yl]methyl}-1-methyl-1H-1,2,3-triazol-4-yl)-2-ethylpyridin-3-yl]oxy}cyclohexane-1-carboxylic acid] as the compound, how does the IC50 read?
Answer: 0.032 µM

Question: For Cc1nc(-c2nnn(C)c2Cn2nnc(C3CCOCC3)n2)ccc1O[C@H]1CCC[C@H](C(=O)O)C1 [Example 308, (1S,3S)-3-{[2-methyl-6-(1-methyl-5-{[5-(oxan-4-yl)-2H-1,2,3,4-tetrazol-2-yl]methyl}-1H-1,2,3-triazol-4-yl)pyridin-3-yl]oxy}cyclohexane-1-carboxylic acid], which IC50 is on record?
Answer: 0.714 µM

Question: Cc1nc(-c2nnn(C)c2Cn2nnnc2CCC(C)C)ccc1O[C@H]1CCC[C@H](C(=O)O)C1 [Example 309, (1S,3S)-3-{[2-methyl-6-(1-methyl-5-{[5-(3-methylbutyl)-1H-1,2,3,4-tetrazol-1-yl]methyl}-1H-1,2,3-triazol-4-yl)pyridin-3-yl]oxy}cyclohexane-1-carboxylic acid] was tested. Which IC50 did it give?
Answer: 0.191 µM

Question: How did the IC50 turn out when Cc1nc(-c2nnn(C)c2Cn2nnc(CCC(C)C)n2)ccc1O[C@H]1CCC[C@H](C(=O)O)C1 [Example 310, (1S,3S)-3-{[2-methyl-6-(1-methyl-5-{[5-(3-methylbutyl)-2H-1,2,3,4-tetrazol-2-yl]methyl}-1H-1,2,3-triazol-4-yl)pyridin-3-yl]oxy}cyclohexane-1-carboxylic acid] was run?
Answer: 0.024 µM

Question: For Cc1nc(-c2nnn(C)c2Cn2nnnc2N2CCCC2)ccc1O[C@H]1CCC[C@H](C(=O)O)C1 [Example 311, (1S,3S)-3-{[2-methyl-6-(1-methyl-5-{[5-(pyrrolidin-1-yl)-1H-1,2,3,4-tetrazol-1-yl]methyl}-1H-1,2,3-triazol-4-yl)pyridin-3-yl]oxy}cyclohexane-1-carboxylic acid], which IC50 is on record?
Answer: 0.605 µM

Question: For Cc1nc(-c2nnn(C)c2Cn2nnc(N3CCCC3)n2)ccc1O[C@H]1CCC[C@H](C(=O)O)C1 [Example 312, (1S,3S)-3-{[2-methyl-6-(1-methyl-5-{[5-(pyrrolidin-1-yl)-2H-1,2,3,4-tetrazol-2-yl]methyl}-1H-1,2,3-triazol-4-yl)pyridin-3-yl]oxy}cyclohexane-1-carboxylic acid], which IC50 is on record?
Answer: 0.234 µM

Question: How did the IC50 turn out when COc1cccc(Cc2nnnn2Cc2c(-c3ccc(O[C@H]4CCC[C@H](C(=O)O)C4)c(C)n3)nnn2C)c1 [Example 313, (1S,3S)-3-({6-[5-({5-[(3-methoxy-phenyl)methyl]-1H-1,2,3,4-tetrazol-1-yl}methyl)-1-methyl-1H-1,2,3-triazol-4-yl]-2-methylpyridin-3-yl}oxy)cyclohexane-1-carboxylic acid] was run?
Answer: 0.277 µM

Question: COc1cccc(Cc2nnn(Cc3c(-c4ccc(O[C@H]5CCC[C@H](C(=O)O)C5)c(C)n4)nnn3C)n2)c1 [Example 314, (1S,3S)-3-({6-[5-({5-[(3-methoxy-phenyl)methyl]-2H-1,2,3,4-tetrazol-2-yl}methyl)-1-methyl-1H-1,2,3-triazol-4-yl]-2-methylpyridin-3-yl}oxy)cyclohexane-1-carboxylic acid] was tested. Which IC50 did it give?
Answer: 0.012 µM

Question: With Cc1nc(-c2nnn(C)c2Cn2nnnc2CC2CCCC2)ccc1O[C@H]1CCC[C@H](C(=O)O)C1 [Example 315, (1S,3S)-3-{[6-(5-{[5-(cyclopentyl-methyl)-1H-1,2,3,4-tetrazol-1-yl]methyl}-1-methyl-1H-1,2,3-triazol-4-yl)-2-methylpyridin-3-yl]oxy}cyclohexane-1-carboxylic acid] as the compound, how does the IC50 read?
Answer: 0.154 µM

Question: Cc1nc(-c2nnn(C)c2Cn2nnc(OCCC3CC3)n2)ccc1O[C@H]1CCC[C@H](C(=O)O)C1 [Example 316, (1 S,3S)-3-((6-(5-((5-(2-cyclopropylethoxy)-2H-tetrazol-2-yl)methyl)-1-methyl-1H-1,2,3-triazol-4-yl)-2-methylpyridin-3-yl)oxy)cyclohexane-1-carboxylic acid] was tested. Which IC50 did it give?
Answer: 0.022 µM

Question: How did the IC50 turn out when Cc1nc(-c2nnn(C)c2Cn2ccc(Cc3ccccc3)n2)ccc1O[C@H]1CCC[C@H](C(=O)O)C1 [Example 317, (1S,3S)-3-((6-(5-((3-benzyl-1H-pyrazol-1-yl)methyl)-1-methyl-1H-1,2,3-triazol-4-yl)-2-methylpyridin-3-yl)oxy)cyclo-hexane-1-carboxylic acid] was run?
Answer: 0.063 µM

Question: CCc1nnn(Cc2c(-c3ccc(O[C@H]4CCC[C@H](C(=O)O)C4)c(C)n3)nnn2C)n1 [Example 318, (1S,3S)-3-((6-(5-((5-ethyl-2H-tetrazol-2-yl)methyl)-1-methyl-1H-1,2,3-triazol-4-yl)-2-methylpyridin-3-yl)oxy)cyclo-hexane-1-carboxylic acid] was tested. Which IC50 did it give?
Answer: 0.414 µM

Question: With Cc1nc(-c2nnn(C)c2Cn2nnnc2C2CC2)ccc1O[C@H]1CCC[C@H](C(=O)O)C1 [Example 319, (1S,3S)-3-((6-(5-((5-cyclopropyl-1H-tetrazol-1-yl)methyl)-1-methyl-1H-1,2,3-triazol-4-yl)-2-methylpyridin-3-yl)oxy)cyclo-hexane-1-carboxylic acid] as the compound, how does the IC50 read?
Answer: 0.673 µM

Question: With Cc1nc(-c2nnn(C)c2Cn2nnc(-c3cccc(F)c3)n2)ccc1O[C@H]1CCC[C@H](C(=O)O)C1 [Example 320, (1S,3S)-3-((6-(5-((5-(3-fluoro-phenyl)-2H-tetrazol-2-yl)methyl)-1-methyl-1H-1,2,3-triazol-4-yl)-2-methylpyridin-3-yl)oxy)cyclo-hexane-1-carboxylic acid] as the compound, how does the IC50 read?
Answer: 0.058 µM

Question: For Cc1nc(-c2nnn(C)c2Cn2nnnc2-c2cccc(F)c2)ccc1O[C@H]1CCC[C@H](C(=O)O)C1 [Example 321, (1S,3S)-3-((6-(5-((5-(3-fluoro-phenyl)-1H-tetrazol-1-yl)methyl)-1-methyl-1H-1,2,3-triazol-4-yl)-2-methylpyridin-3-yl)oxy)cyclo-hexane-1-carboxylic acid], which IC50 is on record?
Answer: 0.428 µM

Question: Cc1nc(-c2nnn(C)c2Cn2nnc(-c3ccc(F)cc3)n2)ccc1O[C@H]1CCC[C@H](C(=O)O)C1 [Example 322, (1S,3S)-3-((6-(5-((5-(4-fluoro-phenyl)-2H-tetrazol-2-yl)methyl)-1-methyl-1H-1,2,3-triazol-4-yl)-2-methylpyridin-3-yl)oxy)cyclo-hexane-1-carboxylic acid] was tested. Which IC50 did it give?
Answer: 0.243 µM

Question: Which IC50 does the source give for Cc1nc(-c2nnn(C)c2Cn2nnnc2-c2ccc(F)cc2)ccc1O[C@H]1CCC[C@H](C(=O)O)C1 [Example 323, (1S,3S)-3-((6-(5-((5-(4-fluoro-phenyl)-1H-tetrazol-1-yl)methyl)-1-methyl-1H-1,2,3-triazol-4-yl)-2-methylpyridin-3-yl)oxy)cyclo-hexane-1-carboxylic acid] here?
Answer: 0.414 µM

Question: Cc1nc(-c2nnn(C)c2Cn2nnc(Cc3ccc(Cl)cc3)n2)ccc1O[C@H]1CCC[C@H](C(=O)O)C1 [Example 324, (1S,3S)-3-((6-(5-((5-(4-chloro-benzyl)-2H-tetrazol-2-yl)methyl)-1-methyl-1H-1,2,3-triazol-4-yl)-2-methylpyridin-3-yl)oxy)cyclo-hexane-1-carboxylic acid] was tested. Which IC50 did it give?
Answer: 0.038 µM

Question: For Cc1nc(-c2nnn(C)c2Cn2nnnc2Cc2ccc(Cl)cc2)ccc1O[C@H]1CCC[C@H](C(=O)O)C1 [Example 325, (1S,3S)-3-((6-(5-((5-(4-chloro-benzyl)-1H-tetrazol-1-yl)methyl)-1-methyl-1H-1,2,3-triazol-4-yl)-2-methylpyridin-3-yl)oxy)cyclo-hexane-1-carboxylic acid], which IC50 is on record?
Answer: 0.167 µM

Question: How did the IC50 turn out when Cc1ccc(Oc2nnn(Cc3c(-c4ccc(O[C@H]5CCC[C@H](C(=O)O)C5)c(C)n4)nnn3C)n2)cc1 [Example 326, (1S,3S)-3-((2-methyl-6-(1-methyl-5-((5-(p-tolyloxy)-2H-tetrazol-2-yl)methyl)-1H-1,2,3-triazol-4-yl)pyridin-3-yl)oxy)cyclohexane-1-carboxylic acid] was run?
Answer: 0.023 µM

Question: How did the IC50 turn out when Cc1nc(-c2nnn(C)c2Cn2nnc(CC(C)C)n2)ccc1O[C@H]1CCC[C@H](C(=O)O)C1 [Example 327, (1S,3S)-3-((6-(5-((5-isobutyl-2H-tetrazol-2-yl)methyl)-1-methyl-1H-1,2,3-triazol-4-yl)-2-methylpyridin-3-yl)oxy)cyclohexane-1-carboxylic acid] was run?
Answer: 0.028 µM

Question: Which IC50 does the source give for Cc1nc(-c2nnn(C)c2Cn2nnnc2CC(C)C)ccc1O[C@H]1CCC[C@H](C(=O)O)C1 [Example 328, (1S,3S)-3-((6-(5-((5-isobutyl-1H-tetrazol-1-yl)methyl)-1-methyl-1H-1,2,3-triazol-4-yl)-2-methylpyridin-3-yl)oxy)cyclohexane-1-carboxylic acid] here?
Answer: 0.118 µM

Question: Cc1nc(-c2nnn(C)c2Cn2nnc(C3CCCC3)n2)ccc1O[C@H]1CCC[C@H](C(=O)O)C1 [Example 329, (1S,3S)-3-((6-(5-((5-cyclopentyl-2H-tetrazol-2-yl)methyl)-1-methyl-1H-1,2,3-triazol-4-yl)-2-methylpyridin-3-yl)oxy)cyclo-hexane-1-carboxylic acid] was tested. Which IC50 did it give?
Answer: 0.014 µM

Question: For Cc1nc(-c2nnn(C)c2Cn2nnnc2C2CCCC2)ccc1O[C@H]1CCC[C@H](C(=O)O)C1 [Example 330, (1S,3S)-3-((6-(5-((5-cyclopentyl-1H-tetrazol-1-yl)methyl)-1-methyl-1H-1,2,3-triazol-4-yl)-2-methylpyridin-3-yl)oxy)cyclo-hexane-1-carboxylic acid], which IC50 is on record?
Answer: 0.385 µM
